What was measured:
Type in all cases: binding
[1] = molecular target: T1, Recombinant human integrin αVβ6 (Homo sapiens, UniProt P06756+P18564); assay: Solid Phase Receptor Assay (SPRA) for αVβ6 function; conditions: plate-bound human LAP
T1 construct: purchased R&D Systems 3817-AV
Protocol: E. Solid Phase Receptor Assay (SPRA) for αVβ6 Function
Wells were washed 3 times with 150 μL TBS+, and then 150 μL of blocking buffer (TBS+ with 1% bovine serum albumin, Sigma A7906) was added. The plate was incubated for 1 hr at 37° C., and then washed 3× with TBS+ buffer. […] Compounds were diluted to 20 μM and then 1 μL was added to each well of the plate according to a standard template with each sample repeated in triplicate. After incubation for two hours at room temperature, the plate was washed 3× with 150 μL of TBS+ buffer. To each well, 50 μL of biotinylated anti-αV antibody (R&D Systems, BAF1219) at 0.5 μg/mL in TBS+/0.1% BSA were added and the plate was covered and incubated for 1 hr at room temperature. After washing the plate 3× with 150 μL of TBS+ buffer, 50 μL of streptavidin-conjugated horseradish peroxidase (R&D Systems, DY998) diluted in TBS+ blocking buffer were added to the wells and the plate incubated for 20 min at room temperature. The plate was washed 3× with TBS+ buffer followed by 50 μL of TMB substrate (Sigma T4444) added to each well in the dark and the plate incubated for 10 min at room temperature. 25 μL of 1.0 M phosphoric acid was added as a stop solution and the plates were read at 450 nm using a Spectramax plate reader.

[2] = molecular target: T2, Recombinant human integrin α5β1 (Homo sapiens, UniProt P05556+P08648); assay: Solid Phase Receptor Assay (SPRA) for α5β1 function; conditions: plate-bound human fibronectin
T2 construct: purchased R&D Systems 3230-A5
Protocol: A. Solid Phase Receptor Assay (SPRA) for α5β1 Function
Wells were washed 3 times with 150 μL TBS+ and then 150 μL of blocking buffer (TBS+ with 1% bovine serum albumin, Sigma A7906) was added. The plate was incubated for 1 hr at 37° C. and then washed 3× with TBS+ buffer. […] Compounds were diluted to 20 μM and then 1 μL was added to each well of the plate according to a standard template with each sample repeated in triplicate. After incubation for two hours at room temperature, the plate was washed 3× with 150 μL of TBS+ buffer. To each well, 50 μL of biotinylated anti-α5 antibody (R&D Systems, BAF1864) at 0.5 μg/mL in TBS+/0.1% BSA were added and the plate covered and incubated for 1 hr at room temperature. After washing the plate 3× with 150 μL of TBS+ buffer, 50 μL of streptavidin-conjugated horseradish peroxidase (R&D Systems, DY998) diluted in TBS+ blocking buffer were added to the wells and the plate incubated for 20 min at room temperature. The plate was washed 3× with TBS+ buffer followed by 50 μL of room temperature TMB substrate (Sigma, T4444) added to each well in the dark and the plate incubated for 25 min at room temperature. 25 μL of 1.0 M phosphoric acid was added as a stop solution and the plates were read at 450 nm using a Spectramax plate reader.

[3] = molecular target: T3, Recombinant human integrin αVβ8 (Homo sapiens, UniProt P06756+P26012); assay: Solid Phase Receptor Assay for αVβ8 function; conditions: plate-bound human LAP; read-out: αVβ8 SPRA IC50
T3 construct: purchased R&D Systems 4135-AV
Protocol: F. Solid Phase Receptor Assay (SFRA) for αVβ8 Function
Wells were washed 3 times with 150 μL TBS+ and then 150 μL of blocking buffer (TBS+ with 1% bovine serum albumin, Sigma A7906) was added. The plate was incubated for 1 hr at 37° C. and then washed 3× with TBS+. […] Compounds were diluted to 20 μM and 1 μL was added to each well of the plate according to a standard template with each sample repeated in triplicate. After incubation for two hours at room temperature, the plate was washed 3× with 150 μL of TBS+. To each well, 50 μL of biotinylated anti-αV antibody (R&D Systems, BAF1219) at 1 μg/mL in TBS+/0.1% BSA were added and the plate was covered and incubated for 1 hr at room temperature. After washing the plate 3× with 150 μL of TBS+ buffer, 50 μL of streptavidin-conjugated horseradish peroxidase (R&D Systems, DY998) diluted in TBS+ blocking buffer were added to the wells and the plate incubated for 20 min at room temperature. The plate was washed 3× with TBS+ followed by 50 μL of TMB substrate (Sigma T4444) added to each well in the dark and the plate incubated for 10 min at room temperature. 25 μL of 1.0 M phosphoric acid was added as a stop solution and the plates were read at 450 nm using a Spectramax plate reader.

[4] = molecular target: T4, Recombinant human integrin αvβ1 (Homo sapiens, UniProt P05556+P06756); assay: Solid Phase Receptor Assay (SPRA) for αVβ1 function; conditions: plate-bound human fibronectin
T4 construct: purchased R&D Systems 6579-AV
Protocol: B. Solid Phase Receptor Assay (SPRA) for αVβ1 Function
Wells were washed 3 times with 150 μL TBS+ and then 150 μL of blocking buffer (TBS+ with 1% bovine serum albumin, Sigma A7906) was added. The plate was incubated for 1 hr at 37° C. and then washed 3× with TBS+ buffer. […] Compounds were diluted to 20 μM and 1 μL was added to each well of the plate according to a standard template with each sample repeated in triplicate. After incubation for two hours at room temperature, the plate was washed 3× with 150 μL of TBS+ buffer. To each well, 50 μL of biotinylated anti-αV antibody (R&D Systems, BAF1219) at 1 μg/mL in TBS+/0.1% BSA were added and the plate covered and incubated for 1 hr at room temperature. After washing the plate 3× with 150 μL of TBS+ buffer, 50 μL of streptavidin-conjugated horseradish peroxidase (R&D Systems, DY998) diluted in TBS+ blocking buffer were added to the wells and the plate incubated for 20 min at room temperature. The plate was washed 3× with TBS+ buffer followed by 50 μL of TMB substrate (Sigma, T4444) added to each well in the dark and the plate incubated for 25 min at room temperature. 25 μL of 1.0 M phosphoric acid was added as a stop solution and the plates were read at 450 nm using a Spectramax plate reader.

T4 sequence (P06756 31-992 limits assumed): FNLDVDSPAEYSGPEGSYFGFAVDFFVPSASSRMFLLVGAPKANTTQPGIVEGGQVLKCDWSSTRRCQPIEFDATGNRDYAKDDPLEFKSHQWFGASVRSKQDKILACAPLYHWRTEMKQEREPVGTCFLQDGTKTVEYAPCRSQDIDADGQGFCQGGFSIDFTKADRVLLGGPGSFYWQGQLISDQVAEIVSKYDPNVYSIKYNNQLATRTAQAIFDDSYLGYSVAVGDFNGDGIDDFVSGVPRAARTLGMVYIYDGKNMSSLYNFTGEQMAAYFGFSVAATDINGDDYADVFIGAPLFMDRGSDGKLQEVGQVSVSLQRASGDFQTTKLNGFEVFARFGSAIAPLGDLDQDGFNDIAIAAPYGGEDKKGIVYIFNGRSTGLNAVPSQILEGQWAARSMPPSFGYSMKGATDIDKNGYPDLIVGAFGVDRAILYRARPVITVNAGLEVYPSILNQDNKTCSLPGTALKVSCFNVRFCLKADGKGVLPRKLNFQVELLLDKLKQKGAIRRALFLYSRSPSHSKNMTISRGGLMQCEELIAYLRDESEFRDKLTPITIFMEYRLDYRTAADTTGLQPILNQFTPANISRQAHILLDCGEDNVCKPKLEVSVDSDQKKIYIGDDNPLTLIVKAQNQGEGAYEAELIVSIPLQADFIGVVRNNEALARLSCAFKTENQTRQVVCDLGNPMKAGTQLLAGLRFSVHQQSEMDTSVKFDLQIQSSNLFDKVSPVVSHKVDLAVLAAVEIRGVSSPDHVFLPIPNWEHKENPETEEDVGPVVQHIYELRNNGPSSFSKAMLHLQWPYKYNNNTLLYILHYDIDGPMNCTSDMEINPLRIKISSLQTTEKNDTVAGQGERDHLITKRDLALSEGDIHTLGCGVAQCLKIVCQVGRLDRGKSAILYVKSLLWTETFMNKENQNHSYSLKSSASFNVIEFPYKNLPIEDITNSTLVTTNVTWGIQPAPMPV
T4 sequence (P05556 21-728 limits assumed): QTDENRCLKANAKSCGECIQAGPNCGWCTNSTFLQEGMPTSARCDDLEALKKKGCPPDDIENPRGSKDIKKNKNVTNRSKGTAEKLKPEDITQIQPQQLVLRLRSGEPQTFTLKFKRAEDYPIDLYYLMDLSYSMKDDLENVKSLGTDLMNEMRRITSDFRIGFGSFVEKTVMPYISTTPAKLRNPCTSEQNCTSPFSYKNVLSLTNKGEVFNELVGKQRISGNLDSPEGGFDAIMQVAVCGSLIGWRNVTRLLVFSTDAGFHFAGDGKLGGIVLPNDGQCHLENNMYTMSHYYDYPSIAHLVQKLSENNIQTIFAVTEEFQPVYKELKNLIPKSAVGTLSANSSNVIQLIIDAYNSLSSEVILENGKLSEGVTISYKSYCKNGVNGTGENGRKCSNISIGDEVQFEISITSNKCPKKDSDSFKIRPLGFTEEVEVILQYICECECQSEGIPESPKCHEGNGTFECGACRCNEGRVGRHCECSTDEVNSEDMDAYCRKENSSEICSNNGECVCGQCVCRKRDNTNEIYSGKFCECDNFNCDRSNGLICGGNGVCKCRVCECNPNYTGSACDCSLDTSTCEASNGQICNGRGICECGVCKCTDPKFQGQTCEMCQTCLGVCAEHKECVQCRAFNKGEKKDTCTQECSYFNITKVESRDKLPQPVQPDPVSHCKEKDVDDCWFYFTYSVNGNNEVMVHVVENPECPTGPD
T3 sequence (P06756 31-992 limits assumed): as the sequence (P06756 31-992 limits assumed) above
T3 sequence (P26012 43-684 limits assumed): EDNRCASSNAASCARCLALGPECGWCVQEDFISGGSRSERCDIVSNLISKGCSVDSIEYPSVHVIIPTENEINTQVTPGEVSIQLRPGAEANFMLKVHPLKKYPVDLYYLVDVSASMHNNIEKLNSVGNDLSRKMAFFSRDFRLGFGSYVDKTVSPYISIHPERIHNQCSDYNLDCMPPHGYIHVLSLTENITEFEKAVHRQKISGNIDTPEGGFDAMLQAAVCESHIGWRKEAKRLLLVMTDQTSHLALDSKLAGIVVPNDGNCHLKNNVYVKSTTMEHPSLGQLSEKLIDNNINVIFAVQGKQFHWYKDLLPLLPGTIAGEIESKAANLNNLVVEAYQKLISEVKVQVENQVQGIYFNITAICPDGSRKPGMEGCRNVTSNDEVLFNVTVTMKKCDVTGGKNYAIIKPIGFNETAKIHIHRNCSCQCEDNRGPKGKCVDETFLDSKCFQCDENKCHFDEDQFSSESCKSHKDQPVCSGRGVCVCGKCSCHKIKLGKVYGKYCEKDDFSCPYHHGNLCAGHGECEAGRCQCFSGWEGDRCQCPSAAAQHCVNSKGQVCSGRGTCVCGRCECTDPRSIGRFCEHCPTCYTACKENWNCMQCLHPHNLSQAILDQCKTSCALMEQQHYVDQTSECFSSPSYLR
T1 sequence (P06756 31-992 limits assumed): as the sequence (P06756 31-992 limits assumed) above
T1 sequence (P18564 22-707 limits assumed): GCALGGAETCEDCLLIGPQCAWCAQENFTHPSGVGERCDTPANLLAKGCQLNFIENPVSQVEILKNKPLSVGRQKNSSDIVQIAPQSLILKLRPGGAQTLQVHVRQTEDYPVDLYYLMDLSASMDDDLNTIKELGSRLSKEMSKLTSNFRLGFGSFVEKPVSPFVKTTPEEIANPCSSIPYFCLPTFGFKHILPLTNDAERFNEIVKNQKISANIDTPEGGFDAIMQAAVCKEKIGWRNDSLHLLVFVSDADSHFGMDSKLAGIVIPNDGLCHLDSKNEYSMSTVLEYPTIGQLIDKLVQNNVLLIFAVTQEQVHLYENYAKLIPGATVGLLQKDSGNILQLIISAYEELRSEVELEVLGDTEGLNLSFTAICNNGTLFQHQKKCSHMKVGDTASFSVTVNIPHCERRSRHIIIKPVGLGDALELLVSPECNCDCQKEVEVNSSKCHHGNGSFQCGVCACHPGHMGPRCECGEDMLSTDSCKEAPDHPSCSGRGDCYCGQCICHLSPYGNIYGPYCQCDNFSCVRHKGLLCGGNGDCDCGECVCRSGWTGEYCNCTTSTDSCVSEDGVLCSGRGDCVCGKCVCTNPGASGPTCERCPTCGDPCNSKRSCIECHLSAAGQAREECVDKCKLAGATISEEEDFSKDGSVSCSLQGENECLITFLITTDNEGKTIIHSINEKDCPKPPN
T2 sequence (P08648 42-995 limits assumed): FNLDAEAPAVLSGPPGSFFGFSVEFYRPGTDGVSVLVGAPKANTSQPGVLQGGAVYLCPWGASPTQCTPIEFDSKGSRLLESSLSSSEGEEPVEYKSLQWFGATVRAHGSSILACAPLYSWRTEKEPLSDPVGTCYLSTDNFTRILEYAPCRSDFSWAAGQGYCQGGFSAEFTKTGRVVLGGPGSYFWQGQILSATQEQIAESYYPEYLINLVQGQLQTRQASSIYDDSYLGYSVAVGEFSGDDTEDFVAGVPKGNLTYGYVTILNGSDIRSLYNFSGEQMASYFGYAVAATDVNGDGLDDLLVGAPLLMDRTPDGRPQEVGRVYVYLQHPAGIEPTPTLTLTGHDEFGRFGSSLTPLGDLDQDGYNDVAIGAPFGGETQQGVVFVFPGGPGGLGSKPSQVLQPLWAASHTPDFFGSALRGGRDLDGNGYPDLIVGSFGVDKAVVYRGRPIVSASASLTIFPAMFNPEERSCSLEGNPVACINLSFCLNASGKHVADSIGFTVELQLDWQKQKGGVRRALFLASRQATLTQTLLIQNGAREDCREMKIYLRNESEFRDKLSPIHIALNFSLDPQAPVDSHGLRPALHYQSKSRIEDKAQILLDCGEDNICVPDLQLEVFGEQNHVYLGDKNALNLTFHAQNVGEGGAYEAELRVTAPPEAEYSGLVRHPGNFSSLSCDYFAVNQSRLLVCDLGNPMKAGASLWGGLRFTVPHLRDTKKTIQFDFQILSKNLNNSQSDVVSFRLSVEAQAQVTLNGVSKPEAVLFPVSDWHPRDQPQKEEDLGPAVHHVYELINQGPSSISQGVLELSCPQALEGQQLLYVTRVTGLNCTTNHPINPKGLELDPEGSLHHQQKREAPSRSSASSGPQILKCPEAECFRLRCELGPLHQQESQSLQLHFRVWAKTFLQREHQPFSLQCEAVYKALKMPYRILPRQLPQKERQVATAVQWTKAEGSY
T2 sequence (P05556 21-728 limits assumed): as the sequence (P05556 21-728 limits assumed) above

In the case of `O=C(O)CC(Cc1cc(OCCc2ccc3c(n2)NCCC3)[nH]n1)c1cccc(F)c1` (centres unmarked) [CC2, reference compound], the IC50 [1] is reported as 54 nM, the IC50 [2] is reported as 770 nM and the IC50 [3] is reported as 680 nM. It also gave an IC50 [4] of 19 nM.

Work on `COCC1(c2cc(C(CC(=O)O)Cc3cc(OCCc4ccc5c(n4)NCCC5)n(C)n3)cc(C(C)(C)C)c2)CCOCC1` (centres unmarked) [Example 1, 3-[3-tert-butyl-5-[4-(methoxymethyl)tetrahydropyran-4-yl]phenyl]-4-[1-methyl-5-[2-(5,6,7,8-tetrahydro-1,8-naphthyridin-2-yl)ethoxy]pyrazol-3-yl]butanoic acid] yielded an IC50 [1] of 200 nM, an IC50 [2] of 2 nM and an IC50 [3] of 27 nM. For the same molecule, the IC50 [4] was 6 nM.

For `CC(C)c1cc(C#N)cc(C(CC(=O)O)Cc2cc(OCCc3ccc4c(n3)NCCC4)n(C)n2)c1` (centres unmarked) [Example 2, 3-(3-cyano-5-isopropylphenyl)-4-(1-methyl-5-(2-(5,6,7,8-tetrahydro-1,8-naphthyridin-2-yl)ethoxy)-1H-pyrazol-3-yl)butanoic acid trifluoroacetic acid], the IC50 [1] was 20 nM, the IC50 [2] was 7 nM and the IC50 [3] was 7 nM. The IC50 [4] was 9 nM.

For `Cn1nc(CC(CC(=O)O)c2cc(Br)cc(S(F)(F)(F)(F)F)c2)cc1OCCc1ccc2c(n1)NCCC2` (centres unmarked) [Example 3, 3-[3-bromo-5-(pentafluoro-sulfanyl)phenyl]-4-[1-methyl-5-[2-(5,6,7,8-tetrahydro-1,8-naphthyridin-2-yl)ethoxy]pyrazol-3-yl]butanoic acid], the IC50 [1] was 54 nM, the IC50 [2] was 31 nM and the IC50 [3] was 13 nM. The IC50 [4] was 12 nM.

For `CC(C)c1cc(C(C)C)cc(C(CC(=O)O)Cc2cc(OCCc3ccc4c(n3)NCCC4)n(C)n2)c1` (centres unmarked) [Example 4, 3-(3,5-diisopropylphenyl)-4-[1-methyl-5-[2-(5,6,7,8-tetrahydro-1,8-naphthyridin-2-yl)ethoxy]pyrazol-3-yl]butanoic acid], the IC50 [1] was 84 nM, the IC50 [2] was 4 nM and the IC50 [3] was 18 nM. For the same molecule, the IC50 [4] was 7 nM.

With `Cn1nc(CC(CC(=O)O)c2cc(C(C)(C)C)cc(C(C)(C)C(F)(F)F)c2)cc1OCCc1ccc2c(n1)NCCC2` (centres unmarked) [Example 5, 3-(3-(tert-butyl)-5-(1,1,1-trifluoro-2-methylpropan-2-yl)phenyl)-4-(1-methyl-5-(2-(5,6,7,8-tetrahydro-1,8-naphthyridin-2-yl)ethoxy)-1H-pyrazol-3-yl) butanoic acid] the IC50 [1] was 460 nM, the IC50 [2] was 2 nM and the IC50 [3] was 20 nM. For the same molecule, the IC50 [4] was 4 nM.

For `Cn1nc(CC(CC(=O)O)c2cc(C(C)(C)C)cc(C3(C(F)F)CC3)c2)cc1OCCc1ccc2c(n1)NCCC2` (centres unmarked) [Example 6, 3-(3-(tert-butyl)-5-(1-(difluoromethyl)cyclopropyl)phenyl)-4-(1-methyl-5-(2-(5,6,7,8-tetrahydro-1,8-naphthyridin-2-yl)ethoxy)-1H-pyrazol-3-yl)butanoic acid], the IC50 [1] was 140 nM, the IC50 [2] was 6 nM and the IC50 [3] was 15 nM. It also gave an IC50 [4] of 5 nM.

With `Cn1nc(CC(CC(=O)O)c2cc(C(C)(C)C)cc(C(C)(C)CO)c2)cc1OCCc1ccc2c(n1)NCCC2` (centres unmarked) [Example 7, 3-[3-tert-butyl-5-(2-hydroxy-1,1-dimethyl-ethyl)phenyl]-4-[1-methyl-5-[2-(5,6,7,8-tetrahydro-1,8-naphthyridin-2-yl)ethoxy]pyrazol-3-yl]butanoic acid] the IC50 [1] was 300 nM, the IC50 [2] was 1 nM and the IC50 [3] was 18 nM. The IC50 [4] was 3 nM.

`Cn1nc(CC(CC(=O)O)c2cc(Cl)cc(C(C)(C)C#N)c2)cc1OCCc1ccc2c(n1)NCCC2` (centres unmarked) [Example 8, 3-(3-chloro-5-(2-cyanopropan-2-yl)phenyl)-4-(1-methyl-5-(2-(5,6,7,8-tetrahydro-1,8-naphthyridin-2-yl)ethoxy)-1H-pyrazol-3-yl)butanoic acid] gave an IC50 [1] of 36 nM, an IC50 [2] of 3 nM and an IC50 [3] of 3 nM. It also gave an IC50 [4] of 2 nM.

Molecule `Cn1nc(CC(CC(=O)O)c2cc(C(C)(C)C)cc(C(C)(C)C#N)c2)cc1OCCc1ccc2c(n1)NCCC2` (centres unmarked) [Example 9, 3-[3-tert-butyl-5-(1-cyano-1-methyl-ethyl)phenyl]-4-[1-methyl-5-[2-(5,6,7,8-tetrahydro-1,8-naphthyridin-2-yl)ethoxy]pyrazol-3-yl]butanoic acid] has an IC50 [1] of 150 nM, an IC50 [2] of 1 nM and an IC50 [3] of 8 nM. It also gave an IC50 [4] of 2 nM.

Molecule `COc1c(C(C)(C)C)cc(C(CC(=O)O)Cc2cc(OCCc3ccc4c(n3)NCCC4)n(C)n2)cc1C(C)(C)C` (centres unmarked) [Example 10, 3-(3,5-di-tert-butyl-4-methoxyphenyl)-4-(1-methyl-5-(2-(5,6,7,8-tetrahydro-1,8-naphthyridin-2-yl)ethoxy)-1H-pyrazol-3-yl)butanoic acid] has an IC50 [1] of 130 nM, an IC50 [2] of 15 nM and an IC50 [3] of 92 nM. The IC50 [4] was 4 nM.

In the case of `COc1c(C(CC(=O)O)Cc2cc(OCCc3ccc4c(n3)NCCC4)n(C)n2)cc(C(C)(C)C)cc1C(C)(C)C` (centres unmarked) [Example 11, 3-(3,5-di-tert-butyl-2-methoxyphenyl)-4-(1-methyl-5-(2-(5,6,7,8-tetrahydro-1,8-naphthyridin-2-yl)ethoxy)-1H-pyrazol-3-yl)butanoic acid], the IC50 [1] is reported as 11000 nM, the IC50 [2] is reported as 15000 nM and the IC50 [3] is reported as 740 nM. It also gave an IC50 [4] of 800 nM.

Molecule `COc1c(Br)cc(C(C)(C)C)cc1C(CC(=O)O)Cc1cc(OCCc2ccc3c(n2)NCCC3)n(C)n1` (centres unmarked) [Example 12, 3-(3-bromo-5-(tert-butyl)-2-methoxyphenyl)-4-(1-methyl-5-(2-(5,6,7,8-tetrahydro-1,8-naphthyridin-2-yl)ethoxy)-1H-pyrazol-3-yl)butanoic acid] has an IC50 [1] of 180 nM, an IC50 [2] of 180 nM and an IC50 [3] of 17 nM. The IC50 [4] was 13 nM.

`COc1cc(C(CC(=O)O)Cc2cc(OCCc3ccc4c(n3)NCCC4)n(C)n2)cc(C23CC4CC(CC(C4)C2)C3)c1OCc1ccccc1` (centres unmarked) [Example 13, 3-[3-(1-adamantyl)-4-benzyloxy-5-methoxy-phenyl]-4-[1-methyl-5-[2-(5,6,7,8-tetrahydro-1,8-naphthyridin-2-yl)ethoxy]pyrazol-3-yl]butanoic acid] showed an IC50 [1] of 170 nM, an IC50 [2] of 210 nM and an IC50 [3] of 540 nM. For the same molecule, the IC50 [4] was 21 nM.

From patent US20210284638A1 (Saint Louis University, priority 2018, published 2021)
